In publication PMC5962679 (Frontiers in Cellular and Infection Microbiology, 2018):
Ends that are not written are not given here.

How the values were obtained:
Assay in all cases: biochemical
Assay type in all cases: binding
Settings in all cases: for inhibition at 250 µM: 24 h, read-out: Binding percentage
[1] = target: T1, HLA-DRB1*0401 (Homo sapiens, UniProt P01903+P01911, A100K/A169T/F76Y/I96L/K127E/L162R/M171V/N62H/P40V/Q125Y/R42H/S133A/S149N/S66Y/V115G/V209L/W38E)
T1 construct: homozygous lymphoblastoid B-cell lines (International Histocompatibility Working Group); host or cells: human HLA-DRB1*0401 homozygous lymphoblastoid B-cell line

[2] = target: HLA-DRB1*0701 (Homo sapiens, UniProt P01903+P01911, A100R/A102G/A103Q/D57E/D86V/E43K/F76Y/K127E/L162R/M171V/P40G/Q125H/Q99D/R33Q/R42Y/R54Q/S133A/S66F/T210M/V115G/Y107V/Y59L/Y89S)
[3] = target: HLA-DRB1*1101 (Homo sapiens, UniProt P01903+P01911, A100R/A169T/A87E/I96F/K41T/L162R/M171V/P40S/Q125H/Q178H/Q39Y/Q99D/R42S/S66Y/T262R/V115G/W38E)
[4] = target: HLA-DRB1*1302 (Homo sapiens, UniProt P01903+P01911, A100E/A169T/K41T/L162R/M171V/P40S/Q125H/Q178H/Q39Y/Q99D/R42S/S66N/T262R/V115G/W38E/Y61H)
HLA-DRB1*1302, sequence (P01903 26-254 limits assumed, other chains not shown): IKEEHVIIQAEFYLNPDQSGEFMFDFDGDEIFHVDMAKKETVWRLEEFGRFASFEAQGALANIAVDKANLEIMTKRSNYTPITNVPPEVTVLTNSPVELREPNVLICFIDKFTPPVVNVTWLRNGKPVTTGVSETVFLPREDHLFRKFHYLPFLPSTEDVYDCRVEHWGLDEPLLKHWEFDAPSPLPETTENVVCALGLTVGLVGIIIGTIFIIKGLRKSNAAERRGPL

HLA-DRB1*1101, sequence (P01903 26-254 limits assumed, other chains not shown): as above

Sequence	IC50 [1] [µM]	inhibition at 250 µM [1] [%]	inhibition at 250 µM [2] [%]	inhibition at 250 µM [3] [%]	inhibition at 250 µM [4] [%]	IC50 [3] [µM]	IC50 [2] [µM]	IC50 [4] [µM]
DKSFISEANSFRNEE [compound 39149]	26.3	85.8	42.8	36.5	33.5	–	–	–
KLKYIFKRRKTMKKK [compound 39151]	40	65.3	36	78.5	13.1	51.1	–	–
LKPFYSLETMLMANS [compound 39147]	4.6	92.6	83.2	79.3	63	23	26	79
NVRKFFLNDVSSIRH [compound 39148]	11.9	83	79.9	73.8	94.2	83.4	39.7	7.4
NYEIYIASSSNIYLM [compound 39046]	28.4	91.8	91.5	82.9	92.8	120	23.3	29.6
QTAFRKFFKKIISLG [compound 39150]	33.7	83.6	67.2	87.6	7.7	83.4	51.8	–
TPIIVKYDNTHAKNR [compound 39048]	11.9	90.7	10.5	16.8	3.3	–	–	–
